Measurements published in paper PMC7782499, “Progerinin, an optimized progerin-lamin A binding inhibitor, ameliorates premature senescence phenotypes of Hutchinson-Gilford progeria syndrome” (Communications Biology, 2021).

Test system: Sprague-Dawley rats
Assay: Single oral gavage dose toxicity study in SD rats
Type: in vivo
Conditions: for Mortality: Day 1-7; for External Gross Observation: No gross findings (animals of 3) / Internal Gross Observation: No gross findings (animals of 3): Sprague-Dawley, 7 day
Excerpt: The protocol and procedures involving the care and use of animals in this study was reviewed and approved by IACUC of QuBEST BIO prior to conduct (Approval no.: QBSIACUC-A18122). During the study, the care and use of animals will be conducted in accordance with all applicable guidelines of Animal Welfare Act. Eleven specific pathogen-gree Sprague-Dawley rats (~6 weeks old) were obtained from SAMTAKO Ltd. (Osan, Korea) and nine rats were used for the study. […] Food was withheld for a further 3–4 h after dosing. Each dose was based on the most recent body weight of each animal and the dose volume was […]. The dosing day was designated as Day 1. All animals were observed twice daily for mortality and moribundity during the study. A clinical observation was performed for all animals at the time of dosing and approximately 1, 2, and 4 h post-dose on dosing day, and once daily during 7-day observation period. Observations were included, but are not limited to, changes in the skin, fur, eyes and mucous membrane; respiratory, circulatory, autonomic and central nervous system function; somatomotor activity and behavior patterns. Individual body weights were measured for all animals on the day of animal receipt, randomization, prior to dosing start (Day 1) and study period (Days 4 and 7). Those animals survived on completion of the 7-day observation period were weighed body weight prior to necropsy and CO2 inhalation anesthesia and exsanguinated from the abdominal aorta. In order to avoid autolytic change, a complete gross pathology examination of the carcass was performed as soon as possible after euthanasia of all animals. Necropsy was consisted of an external examination, including identification of all clinically recorded lesions, as well as a detailed internal examination. Toxicity studies were performed by QuBEST BIO Co., Ltd (Yongin, Korea).
The objective of this study was to investigate the potential acute toxicity or approximate lethal dose of SLC-D011 following a single oral gavage administration to the SD rats.
The study group is detailed in Text Table 1.
Text Table 1. Study Group
The following parameters were evaluated: mortality (twice daily), clinical signs (1, 2, and 4 ho urs post-dose on dosing day, and once daily during 7-day period), body weights (on Days 1, 4 and 7), and […]
Mortality and Clinical Observation […]
The oral gavage route was selected since it is the intended route of administration in humans. […]
The study groups and dose level were assigned as below after consultation with the Sponsor. […]
After overnight fasting (approximately 16 hours, food but not water should be withheld overnight), test article formulations were dosed using a plastic disposable feeding needle attached to a plastic disposable syringe. Food was withheld for a further 3~4 hours after dosing. Each dose was based on the most recent body weight of each animal and the dose volume was 10 mL/kg. The dosing day was designated as study Day 1.
All animals were observed twice daily [once (am) on weekend and holiday] for mortality and moribundity during the study.
A clinical observation was performed for all animals at the time of dosing and approximately 1, 2 and 4 hours post-dose on dosing day, and once daily during 7-day observation period.

[1] = female, rat, in vivo, 500 mg/kg

## CC1(C)Oc2cc3oc(=O)ccc3cc2C[C@@H]1OC/C=C/c1ccccc1 [SLC-D011]
Female rats, 500 mg/kg
  Mortality: 0/3
Female rats, 2,000 mg/kg
  Mortality: 0/3
[1]
  External Gross Observation: No gross findings (animals of 3): 3
  Internal Gross Observation: No gross findings (animals of 3): 3
Male rats, 500 mg/kg
  Mortality: 0/3
Male rats, 2,000 mg/kg
  Mortality: 0/3
male, rat, in vivo, 500 mg/kg
  External Gross Observation: No gross findings (animals of 3): 3
  Internal Gross Observation: No gross findings (animals of 3): 3
rat, in vivo, 500 mg/kg
  Clinical Observation: Appears Normal
Single oral gavage at 500 and 2,000 mg/kg
  Tolerability: well tolerated
Single oral gavage, both sexes
  Approximate lethal dose (ALD): > 2,000 mg/kg
